Assay results: US12115152B2, “Pan-RAF kinase inhibitor and use thereof” (HEFEI INSTITUTES OF PHYSICAL SCIENCE, CHINESE ACADEMY OF …, priority 2019, dated 2024)

Columns and labels:
Format in all cases: cell-based
[1] = system: colorectal cancer cell COLO205 (expressing BRAF-V600E mutant kinase); assay: Effect on proliferation of cancer cells, Cell Titer-Glo, 72 hours; details: Homo sapiens, COLO 205
Procedure: (§1) The compounds of the present invention were tested for their effect on growth of cancer cells (Table 2), to further evaluate the compounds herein for their inhibitory effect on proliferation of cancer cells and their selectivity in inhibiting proliferation of cancer cells.
(§2) The cells were incubated for 72 hours. The number of viable cells was detected with a Cell Titer-Glo (Promega, USA) Cell Viability Assay Kit by quantifying the ATP in viable cells. The values of GI50 (unit) of the compounds of the present invention against each of the test cells were determined.

[2] = system: melanoma cell A375 (expressing BRAF-V600E mutant kinase); assay: as above; details: Homo sapiens, A-375
Procedure: as §1, §2

[3] = Effect on proliferation of cells, Cell Titer-Glo, 72 hours; details: Mus musculus, BaF3 cells
Procedure: The compounds of the present invention were tested for their effect on growth of cancer cells (Table 2), to further evaluate the compounds herein for their inhibitory effect on proliferation of cancer cells and their selectivity in inhibiting proliferation of cancer cells. […]
as §2, with “In the example, solutions of the test compound in DMSO at different concentrations (0.000508 μM, 0.00152 μM, 0.00457 μM, 0.0137 μM, 0.0411 μM, 0.123 μM, 0.370 μM, 1.11 μM, 3.33 μM, 10 μM) was added to the above cells respectively. The cells” for “The cells”

## Cc1ccc(NC(=O)c2ccc(CN3CCN(C)CC3)c(C(F)(F)F)c2)cc1-n1cnc(-c2cnc3[nH]ccc3c2)c1 [Example 174, N-(3-(4-(1H-pyrrolo[2,3-b]pyrid-5-yl)-1H-imidazol-1-yl)-4-methylphenyl)-4-((4-methylpiperazin-1-yl)methyl)-3-(trifluoromethyl)benzamide]
[1]
  GI50: 110 nM
[2]
  GI50: 160 nM
[3]
  GI50: 960 nM

## Cc1ccc(NC(=O)c2cccc(C(F)(F)F)c2)cc1-n1cnc(-c2cnc3[nH]ccc3c2)c1 [Example 177, N-(3-(4-(1H-pyrrolo[2,3-b]pyrid-5-yl)-1H-imidazol-1-yl)-4-methylphenyl)-3-(trifluoromethyl)benzamide]
[1]
  GI50: 65 nM
[2]
  GI50: 120 nM
[3]
  GI50: 2700 nM

## Cc1ccc(NC(=O)c2cccc(C(C)(C)C#N)c2)cc1-n1cnc(-c2cnc3[nH]ccc3c2)c1 [Example 176, N-(3-(4-(1H-pyrrolo[2,3-b]pyrid-5-yl)-1H-imidazol-1-yl)-4-methylphenyl)-3-(2-cyanoprop-2-yl)benzamide]
[1]
  GI50: 130 nM
[2]
  GI50: 89 nM
[3]
  GI50: 920 nM

## Cc1ccc(NC(=O)c2cccc(-c3ccsc3)c2)cc1-n1cc(-c2cnc3[nH]ccc3c2)cn1 [Example 183, N-(3-(4-(1H-pyrrolo[2,3-b]pyrid-5-yl)-1H-pyrazol-1-yl)-4-methylphenyl)-3-(thien-3-yl)benzamide]
[1]
  GI50: 150 nM
[2]
  GI50: 300 nM
[3]
  GI50: 3400 nM

## Cc1ccc(NC(=O)c2cccc(C(C)(C)C#N)c2)cc1-n1cc(-c2cnc3[nH]ccc3c2)cn1 [Example 171, N-(3-(4-(1H-pyrrolo[2,3-b]pyrid-5-yl)-1H-pyrazol-1-yl)-4-methylphenyl)-3-(2-cyanoprop-2-yl)benzamide]
[1]
  GI50: 360 nM
[2]
  GI50: 110 nM
[3]
  GI50: 2600 nM

## Cc1ccc(NC(=O)c2cccc(C(F)(F)F)c2)cc1-n1cc(-c2cnc3[nH]ccc3c2)cn1 [Example 170, N-(3-(4-(1H-pyrrolo[2,3-b]pyrid-5-yl)-1H-pyrazol-1-yl)-4-methylphenyl)-3-(trifluoromethyl)benzamide]
[1]
  GI50: 280 nM
[2]
  GI50: 270 nM
[3]
  GI50: 4800 nM

## Cc1cn(-c2cc(C(=O)Nc3ccc(C)c(-n4cc(-c5cnc6[nH]ccc6c5)cn4)c3)cc(C(F)(F)F)c2)cn1 [Example 167, N-(3-(4-(1H-pyrrolo[2,3-b]pyrid-5-yl)-1H-pyrazol-1-yl)-4-methylphenyl)-3-(4-methyl-1H-imidazol-1-yl)-5-(trifluoromethyl)benzamide]
[1]
  GI50: 670 nM
[2]
  GI50: 330 nM
[3]
  GI50: 3900 nM

## Cc1ccc(NC(=O)c2cccc(C(F)(F)F)c2)cc1-n1cc(-c2cncc(-c3ccncc3)c2)cn1 [Example 13, N-(3-(4-([3,4′-bipyridyl]-5-yl)-1H-pyrazol-1-yl)-4-methylphenyl)-3-(trifluoromethyl)benzamide]
[1]
  GI50: 62 nM
[2]
  GI50: 81 nM
[3]
  GI50: 1300 nM

## Cc1ccc(NC(=O)c2cccc(C(C)(C)C#N)c2)cc1-n1cnc(-c2cncc(N3CCOCC3)c2)c1 [Example 109, 3-(2-cyanoprop-2-yl)-N-(4-methyl-3-(4-(5-morpholinopyrid-3-yl)-1H-imidazol-1-yl)phenyl)benzamide]
[1]
  GI50: 110 nM
[2]
  GI50: 60 nM
[3]
  GI50: 3800 nM

## Cc1ccc(NC(=O)c2ccc(C)c(C(F)(F)F)c2)cc1-n1cnc(-c2cnc3[nH]ccc3c2)c1 [Example 175, N-(3-(4-(1H-pyrrolo[2,3-b]pyrid-5-yl)-1H-imidazol-1-yl)-4-methylphenyl)-4-methyl-3-(trifluoromethyl)benzamide]
[1]
  GI50: 150 nM
[2]
  GI50: 100 nM
[3]
  GI50: 1600 nM

## Cc1ccc(NC(=O)c2cccc(C(F)(F)F)c2)cc1-n1cc(-c2cncc(-c3ccc(N4CCN(C)CC4)cc3)c2)cn1 [Example 31, N-(4-methyl-3-(4-(5-(4-(4-methylpiperazin-1-yl)phenyl)pyrid-3-yl)-1H-pyrazol-1-yl)phenyl)-3-(trifluoromethyl)benzamide]
[1]
  GI50: 98 nM
[2]
  GI50: 100 nM
